Data on 32 compounds can be found in patent US20060069084A1, “Methods of inhibiting kinases” (priority 2001, published 2006).

Holding throughout (assay type): biochemical
Common to all, as to conditions: inhibit 50% of activity at 50 μM

One experiment addresses T1, TYK2 (Homo sapiens, UniProt P29597).
T1 construct: The kinase domain of humanTYK2 was amplified from A549 mRNA; His tag (from pBlueBacHis2A vector; nickel chelate purification) (N); made in house; host or cells: baculovirus; virus made in Sf9, large-scale expression in High Five insect cells
T1 sequence (P29597 897-1176 limits assumed): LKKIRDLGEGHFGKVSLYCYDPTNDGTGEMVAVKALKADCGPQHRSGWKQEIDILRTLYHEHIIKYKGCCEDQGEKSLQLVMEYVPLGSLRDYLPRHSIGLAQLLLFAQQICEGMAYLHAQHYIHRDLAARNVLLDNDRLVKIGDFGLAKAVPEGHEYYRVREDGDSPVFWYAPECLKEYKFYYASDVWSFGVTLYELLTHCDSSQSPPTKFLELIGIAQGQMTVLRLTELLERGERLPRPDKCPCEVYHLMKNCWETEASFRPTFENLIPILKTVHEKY
The experiment is described as follows: TYK2 kinase domain capture-based ELISA kinase assay. As to the method:
(§1) For screening purposes, compounds were diluted in 96 well plates at a concentration of 50 μM or 20 μM. Plates were warmed at 37° C. for 30 minutes before assay.
The kinase domain of humanTYK2 was amplified from A549 mRNA using the polymerase chain reaction with the following primers: […]
TYK2 PCR products were cloned into pBlueBacHis2A (Invitrogen) via the EcoRI site. The recombinant TYK2 baculovirus produced was prepared for transfected into Sf9 insect cells.
(§2) Baculovirus preparations from each of the JAK family members were infected into five litres of High Five cells (Invitrogen) grown in High Five serum free medium (Invitrogen) to a cell density of approximately 1-2×10^6 cells/ml. Cells are infected with virus at a MOI of 0.8-3.0. Cells were harvested and lysed. JAK kinase domains were purified by affinity chromatography on a Probond (Invitrogen) nickel chelate affinity column.
(§3) The biotinylated substrate biotin-EGPWLEEEEEAYGWMDF-NH2 (SEQ ID NO:9) (final concentration 5 μM) was used as substrate, and tyrosine phosphorylation was quantitated following transfer to an avidin coated ELISA plate using peroxidase-linked anti-phospho-tyrosine antibody PY20.
(§4) Inhibitors were added to the assays fifteen minutes prior to the addition of ATP. Inhibitors were added in aqueous DMSO, with DMSO concentrations never exceeding 1%.
On the technique in general: In an ELISA, binding on a coated surface is turned into a signal by an enzyme label.

Another experiment addresses T2, JAK1 (Homo sapiens, UniProt P23458).
T2 construct: The kinase domain of humanJAK1 was amplified from U937mRNA; His tag (from pFastBac HTb vector; nickel chelate purification) (N); made in house; host or cells: baculovirus; virus made in Sf9, large-scale expression in High Five insect cells
In words: JAK1 kinase domain capture-based ELISA kinase assay. As to the method:
as §1
The kinase domain of humanJAK1 was amplified from U937mRNA using the polymerase chain reaction with the following primers: […]
JAK1 PCR products were cloned into the pFastBac HTb expression vector (Gibco) via the Xho I and Kpn I sites. The JAK1 plasmid was then transformed into competent DH10Bac cells (Gibco), and the recombinant baculovirus produced prepared for transfection into Sf9 insect cells.
as §2, §3, §4

The target in another experiment is T3, JAK2 (Homo sapiens, UniProt O60674).
T3 construct: The kinase domain of humanJAK2 was amplified from U937mRNA; His tag (from pFastBac HTc vector; nickel chelate purification) (N); made in house; host or cells: baculovirus; virus made in Sf9, large-scale expression in High Five insect cells
T3 sequence (O60674 849-1124 limits assumed): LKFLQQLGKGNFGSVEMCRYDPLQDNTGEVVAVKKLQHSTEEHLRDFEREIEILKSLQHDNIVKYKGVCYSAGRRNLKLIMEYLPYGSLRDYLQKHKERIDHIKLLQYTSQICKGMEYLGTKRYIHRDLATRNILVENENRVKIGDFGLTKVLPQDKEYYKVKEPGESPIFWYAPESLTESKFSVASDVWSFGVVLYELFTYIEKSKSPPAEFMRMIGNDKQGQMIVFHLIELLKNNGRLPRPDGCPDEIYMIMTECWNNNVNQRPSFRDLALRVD
The experiment is described as follows: JAK2 kinase domain capture-based ELISA kinase assay. As to the method: as §1
The kinase domain of humanJAK2 was amplified from U937mRNA using the polymerase chain reaction with the following primers: […]
JAK2 PCR products were cloned into the pFastBac HTc expression vector (Gibco) via the Sal I and Not I sites. The JAK2 plasmid was then transformed into competent DH10Bac cells (Gibco), and the recombinant baculovirus produced prepared for transfection into Sf9 insect cells.
as §2, §3, §4

The next experiment addresses T4, JAK3 (Homo sapiens, UniProt P52333).
T4 construct: The kinase domain of humanJAK3 was amplified from U937mRNA; His tag (from pFastBac HTb vector; nickel chelate purification) (N); made in house; host or cells: baculovirus; virus made in Sf9, large-scale expression in High Five insect cells
In words: JAK3 kinase domain capture-based ELISA kinase assay. How it is done: as §1
The kinase domain of humanJAK3 was amplified from U937mRNA using the polymerase chain reaction with the following primers: […]
JAK3 PCR products were cloned into the pFastBac HTb expression vector (Gibco) via the Xho I and Kpn I sites. The JAK3 plasmid was then transformed into competent DH10Bac cells (Gibco), and the recombinant baculovirus produced prepared for transfection into Sf9 insect cells.
as §2, §3, §4

Bounds are passed on as bounds.

T2 sequence (P23458 875-1153 limits assumed): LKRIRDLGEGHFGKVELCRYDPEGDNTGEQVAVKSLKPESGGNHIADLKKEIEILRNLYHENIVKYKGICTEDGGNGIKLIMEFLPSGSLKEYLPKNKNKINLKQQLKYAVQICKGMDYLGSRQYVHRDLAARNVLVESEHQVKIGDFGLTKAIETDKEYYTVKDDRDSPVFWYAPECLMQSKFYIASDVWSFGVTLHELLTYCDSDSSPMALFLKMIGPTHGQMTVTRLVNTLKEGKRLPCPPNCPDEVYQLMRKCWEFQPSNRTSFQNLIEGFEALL
T4 sequence (P52333 822-1111 limits assumed): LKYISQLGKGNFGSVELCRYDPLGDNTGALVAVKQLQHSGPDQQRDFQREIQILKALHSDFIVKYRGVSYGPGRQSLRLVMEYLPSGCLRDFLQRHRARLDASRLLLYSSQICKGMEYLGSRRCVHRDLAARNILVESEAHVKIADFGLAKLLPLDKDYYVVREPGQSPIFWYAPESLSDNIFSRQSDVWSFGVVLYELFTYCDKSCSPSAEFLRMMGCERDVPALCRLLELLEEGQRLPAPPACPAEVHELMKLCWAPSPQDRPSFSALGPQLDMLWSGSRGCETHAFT

Turning to `COc1cc(-c2cncc(NCCc3ccncc3)n2)cc(OC)c1OC` [CYT21404], the IC50 at TYK2 (Table 3), on JAK1 (Table 3), at JAK2 (Table 3) and at JAK3 (Table 3) was less than 50 µM each time.
Take `O=C(O)c1ccc(-c2cn3ccnc3c(N3CCN(c4ccncc4)CC3)n2)cc1`: the IC50 (usually the concentration at which inhibition is half-maximal) at TYK2 (Table 6) was greater than 50 µM; at JAK1 (Table 6) it was greater than 50 µM; against JAK2 (Table 6) it was less than 50 µM; against JAK3 (Table 6), greater than 50 µM.
In the case of `COc1cc(-c2cn3ccnc3c(NC3CC3)n2)ccc1O`, the IC50 on TYK2 (Table 6) was greater than 50 µM; at JAK1 (Table 6), less than 50 µM; at JAK2 (Table 6), less than 50 µM; against JAK3 (Table 6) it was less than 50 µM.
As for `COc1ccc(N2CCN(c3cncc(-c4ccc(CC(N)C(=O)O)cc4)n3)CC2)cc1OC` (centres unmarked) [CYT34205], the IC50 against TYK2 (Table 3), against JAK1 (Table 3), against JAK2 (Table 3) and against JAK3 (Table 3) was less than 50 µM in each case.
For `CCCC/C=C/c1cn2ccnc2c(NCc2ccncc2)n1`, the IC50 on TYK2 (Table 6) is greater than 50 µM; against JAK1 (Table 6) it was greater than 50 µM; against JAK2 (Table 6), greater than 50 µM; at JAK3 (Table 6), less than 50 µM.
Consider `Brc1cn2ccnc2c(Nc2ccc(N3CCOCC3)cc2)n1` [drawing 100], for which the IC50 at TYK2 (Table 6) was less than 50 µM; at JAK1 (Table 6), less than 50 µM; against JAK2 (Table 6), less than 50 µM; on JAK3 (Table 6), greater than 50 µM.
Regarding `CN(C)CCNC(=O)c1cccc(-c2cn3ccnc3c(Nc3ccc(Cl)cc3)n2)c1`, the IC50 at TYK2 (Table 6) was greater than 50 µM; against JAK1 (Table 6) it was less than 50 µM; on JAK2 (Table 6) it was less than 50 µM; against JAK3 (Table 6), greater than 50 µM.
Turning to `CCN(CCO)c1ccc(Nc2nc(Br)cn3ccnc23)cc1` [drawing 101], the IC50 is less than 50 µM against TYK2 (Table 6), less than 50 µM at JAK1 (Table 6), less than 50 µM against JAK2 (Table 6) and greater than 50 µM on JAK3 (Table 6).
`Fc1ccc(CNc2cncc(-c3cccnc3)n2)cc1` [CYT20307]: the IC50 against TYK2 (Table 3), against JAK1 (Table 3), at JAK2 (Table 3) and against JAK3 (Table 3) was less than 50 µM each time.
`COc1cc(-c2cncc(N[C@H](C)c3ccccc3)n2)cc(OC)c1OC` [CYT32107]: the IC50 on TYK2 (Table 3), against JAK1 (Table 3), against JAK2 (Table 3) and against JAK3 (Table 3) was less than 50 µM each time.
Turning to `Nc1cccc(-c2cn3ccnc3c(Nc3ccccc3)n2)c1` [drawing 87], the IC50 against TYK2 (Table 6) is less than 50 µM; at JAK1 (Table 6), less than 50 µM; at JAK2 (Table 6), less than 50 µM; on JAK3 (Table 6), greater than 50 µM.
For `CC(C)[C@H](CO)Nc1nc(-c2cccc(N)c2)cn2ccnc12`, the IC50 against TYK2 (Table 5), at JAK1 (Table 5), against JAK2 (Table 5) and on JAK3 (Table 5) was less than 50 µM throughout.
For `COc1ccc(Nc2nc(-c3ccccc3Cl)cn3ccnc23)cn1`, the concentration for half-maximal inhibition (IC50) against TYK2 (Table 6) is greater than 50 µM; against JAK1 (Table 6), greater than 50 µM; at JAK2 (Table 6), less than 50 µM; against JAK3 (Table 6) it was greater than 50 µM.
Turning to `c1ccc(-c2cc(Nc3ccc4[nH]ccc4c3)c3nccn3c2)cc1`, the IC50 on TYK2 (Table 5), at JAK1 (Table 5), on JAK2 (Table 5) and against JAK3 (Table 5) was less than 50 µM in each case.
As to `c1cn2cc(-c3ccc4c(c3)OCO4)nc(Nc3ccc(N4CCOCC4)cc3)c2n1`, the IC50 against TYK2 (Table 6) was less than 50 µM; against JAK1 (Table 6) it was less than 50 µM; on JAK2 (Table 6), less than 50 µM; against JAK3 (Table 6) it was greater than 50 µM.
Regarding `O=C(O)c1ccc(-c2cn3ccnc3c(N3CCN(c4ccccn4)CC3)n2)cc1`, the IC50 against TYK2 (Table 6) is greater than 50 µM; against JAK1 (Table 6) it was less than 50 µM; on JAK2 (Table 6), greater than 50 µM; against JAK3 (Table 6) it was greater than 50 µM.
For the compound `CCN(CCO)c1ccc(Nc2nc(-c3cc(C(F)(F)F)cc(C(F)(F)F)c3)cn3ccnc23)cc1`, the IC50 on TYK2 (Table 6) is greater than 50 µM; against JAK1 (Table 6), greater than 50 µM; on JAK2 (Table 6), less than 50 µM; against JAK3 (Table 6), greater than 50 µM.
Take `CCN(CCO)c1ccc(Nc2nc(-c3ccc(F)c(Cl)c3)cn3ccnc23)cc1`: the IC50 was less than 50 µM at TYK2 (Table 6), less than 50 µM against JAK1 (Table 6), less than 50 µM on JAK2 (Table 6) and greater than 50 µM at JAK3 (Table 6).
Regarding `OCc1ccccc1-c1cncc(NCc2ccccc2)n1` [CYT25210], the IC50 at TYK2 (Table 3), against JAK1 (Table 3), against JAK2 (Table 3) and on JAK3 (Table 3) was less than 50 µM in each case.
Take `OCc1ccccc1-c1cn2ccnc2c(Nc2ccc(N3CCOCC3)cc2)n1` [drawing 64]: the IC50 at TYK2 (Table 5), on JAK1 (Table 5), at JAK2 (Table 5) and against JAK3 (Table 5) was less than 50 µM each time.
With `Cc1ccc(S(=O)(=O)Nc2ccc(Nc3nc(-c4cccc(N)c4)cn4ccnc34)cc2)cc1`, the IC50 at TYK2 (Table 6) was less than 50 µM; at JAK1 (Table 6), less than 50 µM; against JAK2 (Table 6) it was less than 50 µM; against JAK3 (Table 6), greater than 50 µM.
For `CCNc1nc(-c2ccc(N(C)C)cc2)cn2ccnc12`, the IC50 was greater than 50 µM on TYK2 (Table 6), less than 50 µM on JAK1 (Table 6), greater than 50 µM against JAK2 (Table 6) and greater than 50 µM on JAK3 (Table 6).
In the case of `Oc1ccc(-c2cn3ccnc3c(N3CCOCC3)n2)cc1` [drawing 90], the IC50 against TYK2 (Table 6) is greater than 50 µM; on JAK1 (Table 6) it was greater than 50 µM; against JAK2 (Table 6), less than 50 µM; against JAK3 (Table 6) it was greater than 50 µM.
In the case of `O=C(O)c1cccc(-c2cn3ccnc3c(Nc3ccc4cn[nH]c4c3)n2)c1`, the IC50 against TYK2 (Table 6) was less than 50 µM; at JAK1 (Table 6), less than 50 µM; at JAK2 (Table 6), less than 50 µM; at JAK3 (Table 6) it was greater than 50 µM.
`Clc1ccccc1-c1cn2ccnc2c(Nc2ccc3[nH]ccc3c2)n1`: the IC50 is less than 50 µM at TYK2 (Table 6), less than 50 µM on JAK1 (Table 6), less than 50 µM at JAK2 (Table 6) and greater than 50 µM on JAK3 (Table 6).
Take `CN(C)C(=O)COc1cccc(Nc2nc(-c3ccccc3)cn3ccnc23)c1`: the IC50 at TYK2 (Table 6) was less than 50 µM; against JAK1 (Table 6) it was less than 50 µM; against JAK2 (Table 6) it was less than 50 µM; against JAK3 (Table 6) it was greater than 50 µM.
As to `CC(=O)Nc1cccc(-c2cncc(N[C@@H](C)c3ccccc3)n2)c1` [CYT20508], the IC50 on TYK2 (Table 3), at JAK1 (Table 3), at JAK2 (Table 3) and against JAK3 (Table 3) was less than 50 µM throughout.
On to `c1coc(-c2cn3ccnc3c(Nc3ccc(N4CCOCC4)cc3)n2)c1`, for which the IC50 is less than 50 µM on TYK2 (Table 6), less than 50 µM on JAK1 (Table 6), less than 50 µM against JAK2 (Table 6) and greater than 50 µM at JAK3 (Table 6).
In the case of `C[C@H](Nc1cncc(-c2cccc(CO)c2)n1)c1ccccc1` [CYT20504], the half-maximal inhibitory concentration (IC50) on TYK2 (Table 3), at JAK1 (Table 3), against JAK2 (Table 3) and on JAK3 (Table 3) was less than 50 µM throughout.
In the case of `CN(C)c1ccc(-c2cn3ccnc3c(NC3CC3)n2)cc1`, the IC50 against TYK2 (Table 6) was greater than 50 µM; at JAK1 (Table 6), greater than 50 µM; against JAK2 (Table 6) it was greater than 50 µM; at JAK3 (Table 6) it was less than 50 µM.
As for `COc1cncc(-c2cncc(N[C@@H](C)c3ccccc3)n2)c1` [CYT24510], the IC50 at TYK2 (Table 3), on JAK1 (Table 3), at JAK2 (Table 3) and against JAK3 (Table 3) was less than 50 µM each time.
`CCNc1nc(-c2ccc(O)c(OC)c2)cn2ccnc12`: the IC50 against TYK2 (Table 6) was greater than 50 µM; against JAK1 (Table 6), less than 50 µM; on JAK2 (Table 6) it was less than 50 µM; on JAK3 (Table 6), less than 50 µM.
